In general, MIC refers to the lowest concentration that inhibits growth of the organism. As a reminder, the LD50 is the dose expected to kill half of the subjects tested. For orientation: ED50 means the midpoint of the dose-response relation. Read a low ED50 as greater potency.

This passage reports MIC, LD50 and ED50 results from patent publication US5068349A, “Mitomycin derivatives” (Kyowa Hakko Kogyo Co., Ltd., priority 1988, dated 1991).

Values after ≈ are worked out from the molar mass of the structure shown.

The test system of data set [1] is Streptococcus faecium ATCC 10541. Briefly: minimum growth inhibitory concentration, agar dilution method (SF). The conditions noted are these: Enterococcus faecium, ATCC10541, pH 7.0. The format is cell-based. As to the method: (§1) The antibacterial activity of Compounds (I) against various bacteria [minimum growth inhibitory concentration (μ g/ml)] is shown in Table 3.
(§2) The minimum growth inhibitory concentration was determined by the agar dilution method at pH 7.0. In the table, names of bacteria are shown by the following symbols.
SF : Streptococcus faecium ATCC 10541
(In general: In agar dilution the substance is mixed into plates at graded concentrations.)

Data set [2] concerns Staphylococcus aureus ATCC 6538P. Briefly: minimum growth inhibitory concentration, agar dilution method (SA). The format is cell-based. The conditions noted are these: ATCC6538P, pH 7.0. The protocol:
as §1, §2
SA : Staphylococcus aureus ATCC 6538P

Data set [3] relates to Proteus vulgaris ATCC 6897. Briefly: minimum growth inhibitory concentration, agar dilution method (PV). The conditions noted are these: ATCC6897, pH 7.0. The data set is classed as cell-based. The protocol:
as §1, §2
PV : Proteus vulgaris ATCC 6897

Data set [4] concerns Klebsiella pneumoniae ATCC 10031. Briefly: minimum growth inhibitory concentration, agar dilution method (KP). The conditions noted are these: ATCC10031, pH 7.0. The format is cell-based. As to the method: as §1, §2
KP : Klebsiella pneumoniae ATCC 10031

The nature of data set [5]: Determination of LD50 (single administration, 14 days observation). The conditions noted are these: mouse, in vivo, ddY mice, Behrens Kaerber's method. As to the method:
(§3) LD50 and ED50 were determined by the following methods, respectively.
(1) Determination of LD50
Five ddY mice were used for each group, and the test compounds were administered once to the mice intraperitoneally or intravenously. […] LD50 was calculated from the death rate of each group according to the Behrens Kaerber's method.

A further data set relates to Sarcoma 180 solid tumor. Briefly: Determination of ED50 against Sarcoma 180 solid tumor. As to conditions: Mus musculus, dose at T/C 0.5 (tumor volume, 7 days after implantation), male ddY mice, 24 hours after implantation. The format is in vivo. The protocol: as §3
(2) Determination of ED50
Sarcoma 180 cells (5×10^6 cells) were implanted intraperitoneally into a ddY mouse and the cells were collected from the ascitic fluid of the animal 7 days after the implantation. The cells were washed once with sterilized physiological saline solution and then suspended in sterilized physiological saline solution to prepare a cell suspension containing 5×10^7 cells/ml. The suspension (0.1 ml) was subcutaneously implanted into the right axilla of male ddY mice weighing 20±2 g.
A test compound was dissolved in physiological saline solution or Tween 80-containing physiological saline solution, and 0.1 to 0.2 ml of the solution was administered to 5 mice as one group intraperitoneally or intravenously 24 hours after the implantation of the tumor cells.
The anti-tumor activity of the test compound was determined by measuring the major axis (a) and the minor axis (b) of the tumor 7 days after the implantation, calculating a value of (a)×(b)^2 /2 corresponding to the volume of the tumor, and calculating a ratio T/C of the volume (T) of the group which received the test compound to the volume (C) of the control group which received no test compound T/C at each dose given was plotted on a graph in which T/C is shown by an ordinary scale on the vertical axis and a dose is shown by a logarithmic scale on the abscissa. The relationship between the dose and T/C was determined to be a straight line by the least-squares method.

Where [6] appears, read: Sarcoma-180, ip, 168 h, intraperitoneal.
The mark [7] stands for this setting: Sarcoma-180, 168 h, intravenous.

Turning to `COCC1=C(N)C(=O)C2=C(C1=O)N1CC3NC3C1(OC)C2COC(N)=O` (stereo not drawn) [Compound 2, 6-Demethyl-6-methoxymethylmitomycin C], the minimum inhibitory concentration (MIC) was determined as 1.3 µg/mL (≈ 3.57 µM) in data set [1], 1.3 µg/mL (≈ 3.57 µM) in data set [2], 1.3 µg/mL (≈ 3.57 µM) in data set [3] and 0.31 µg/mL (≈ 0.851 µM) in data set [4]. Besides, the LD50 at 336 h in data set [5] (ip, intraperitoneal) is 75 mg/kg. The same compound returned an ED50 with Sarcoma 180 solid tumor (setting [6]) of 34 mg/kg.

Take `COCC1=C(N)C(=O)C2=C(C1=O)N1CC3C(N3C)C1(OC)C2COC(N)=O` (stereo not drawn) [Compound 1, 6-Demethyl-6-methoxymethylporfiromycin]: the minimal inhibitory concentration (MIC) was 0.63 µg/mL (≈ 1.66 µM) in data set [1], 0.31 µg/mL (≈ 0.819 µM) in data set [2], more than 40 µg/mL in data set [3] and 0.63 µg/mL (≈ 1.66 µM) in data set [4].

In the case of `CCCCOCC1=C(N)C(=O)C2=C(C1=O)N1CC3NC3C1(OC)C2COC(N)=O` (stereo not drawn) [Compound 6, 6-Demethyl-6-n-butoxymethylmitomycin C], the MIC turned out to be 0.31 µg/mL (≈ 0.763 µM) in data set [1], 0.63 µg/mL (≈ 1.55 µM) in data set [2] and 5 µg/mL (≈ 12.3 µM) in data set [4]. The compound also gave an LD50 at 336 h in data set [5] (ip, intraperitoneal) of more than 50 mg/kg. Further, the ED50 in the data set on Sarcoma 180 solid tumor (setting [6]) worked out at 38 mg/kg.

For `COC12C(COC(N)=O)C3=C(C(=O)C(COC(C)C)=C(N)C3=O)N1CC1NC12` (stereo not drawn) [Compound 8, 6-Demethyl-6-isopropoxymethylmitomycin C], the minimal inhibitory concentration (MIC) in data set [1] turned out to be 0.31 µg/mL (≈ 0.79 µM); in data set [2], 0.63 µg/mL (≈ 1.61 µM); in data set [3], 40 µg/mL (≈ 102 µM); in data set [4], 0.63 µg/mL (≈ 1.61 µM). Further, the LD50 at 336 h in data set [5] (intravenous) was more than 50 mg/kg. The same compound showed a 50% effective dose (ED50) with Sarcoma 180 solid tumor (setting [7]) of 14.9 mg/kg.

Take `COC12C(COC(N)=O)C3=C(C(=O)C4=C(NCCSC4)C3=O)N1CC1NC12` (stereo not drawn) [Compound 20]: the minimum inhibitory concentration (MIC) was 5 µg/mL (≈ 12.7 µM) in data set [1], 2.5 µg/mL (≈ 6.37 µM) in data set [2], 40 µg/mL (≈ 102 µM) in data set [3] and 10 µg/mL (≈ 25.5 µM) in data set [4]. In data set [5] (intravenous), the 50% lethal dose (LD50) at 336 h was determined as 22.5 mg/kg. For the same compound, the ED50 in the data set with Sarcoma 180 solid tumor (setting [7]) is 12.6 mg/kg.

As for `COC12C(COC(N)=O)C3=C(C(=O)C(CO)=C(N)C3=O)N1CC1NC12` (stereo not drawn) [Compound 10, 6-Demethyl-6-hydroxymethylmitomycin C], the minimal inhibitory concentration (MIC) came to 10 µg/mL (≈ 28.5 µM) in data set [1], 5 µg/mL (≈ 14.3 µM) in data set [2], 5 µg/mL (≈ 14.3 µM) in data set [3] and 1.3 µg/mL (≈ 3.71 µM) in data set [4].

On to `COC12C(COC(N)=O)C3=C(C(=O)C(CSCCO)=C(N)C3=O)N1CC1NC12` (stereo not drawn) [Compound 13, 6-Demethyl-6-(2-hydroxyethylthio)methylmitomycin C], for which the MIC turned out to be 10 µg/mL (≈ 24.4 µM) in data set [1], 10 µg/mL (≈ 24.4 µM) in data set [2], 40 µg/mL (≈ 97.5 µM) in data set [3] and 5 µg/mL (≈ 12.2 µM) in data set [4].

As to `COC12C(COC(N)=O)C3=C(C(=O)C(CSc4ccccc4)=C(N)C3=O)N1CC1NC12` (stereo not drawn) [Compound 17, 6-Demethyl-6-phenylthiomethylmitomycin C], the MIC in data set [1] came out at 0.31 µg/mL (≈ 0.701 µM); in data set [2], 20 µg/mL (≈ 45.2 µM); in data set [3], 40 µg/mL (≈ 90.4 µM); in data set [4], 10 µg/mL (≈ 22.6 µM). The LD50 at 336 h in data set [5] (intravenous) is 50 mg/kg. In the data set with Sarcoma 180 solid tumor (setting [7]), this compound had an ED50 of 6.1 mg/kg.

For `CCCCCCCCCCCCSCC1=C(N)C(=O)C2=C(C1=O)N1CC3NC3C1(OC)C2COC(N)=O` (stereo not drawn) [Compound 14, 6-Demethyl-6-dodecylthiomethylmitomycin C], the values for the minimum inhibitory concentration (MIC) in data set [1], in data set [2] and in data set [3] were 0.39 µg/mL (≈ 0.729 µM), 0.2 µg/mL (≈ 0.374 µM) and more than 50 µg/mL, respectively.

For `COC12C(COC(N)=O)C3=C(C(=O)C(COCc4ccccc4)=C(N)C3=O)N1CC1NC12` (stereo not drawn) [Compound 7, 6-Demethyl-6-benzyloxymethylmitomycin C], the MIC in data set [1] worked out at 0.16 µg/mL (≈ 0.363 µM); in data set [2], 0.63 µg/mL (≈ 1.43 µM); in data set [4], 5 µg/mL (≈ 11.4 µM). The compound further returned a median lethal dose (LD50) at 336 h in data set [5] (ip, intraperitoneal) of 60 mg/kg. The same compound had a median effective dose (ED50) in the data set with Sarcoma 180 solid tumor (setting [6]) of 25.2 mg/kg.

As to `CCSCC1=C(N)C(=O)C2=C(C1=O)N1CC3NC3C1(OC)C2COC(N)=O` (stereo not drawn) [Compound 11, 6-Demethyl-6-ethylthiomethylmitomycin C], the minimum inhibitory concentration (MIC) in data set [1] stood at 0.31 µg/mL (≈ 0.786 µM); in data set [2], 0.039 µg/mL (≈ 0.0989 µM); in data set [3], 0.16 µg/mL (≈ 0.406 µM); in data set [4], 1.3 µg/mL (≈ 3.3 µM). Moreover, in data set [5] (ip, intraperitoneal), the LD50 at 336 h was determined as 30 mg/kg. In the data set with Sarcoma 180 solid tumor (setting [6]), this compound had an ED50 of 11.6 mg/kg.

With `COC12C(COC(N)=O)C3=C(C(=O)C(CSCc4ccccc4)=C(N)C3=O)N1CC1NC12` (stereo not drawn) [Compound 18, 6-Demethyl-6-benzylthiomethylmitomycin C], the MIC in data set [1] stood at 0.039 µg/mL (≈ 0.0854 µM); in data set [2], 0.16 µg/mL (≈ 0.35 µM); in data set [3], 40 µg/mL (≈ 87.6 µM); in data set [4], 5 µg/mL (≈ 11 µM). The compound also had a median lethal dose (LD50) at 336 h in data set [5] (intravenous) of 56.6 mg/kg. Besides, in the data set with Sarcoma 180 solid tumor (setting [7]), the 50% effective dose (ED50) came to 20.2 mg/kg.

On to `COC(=O)CCSCC1=C(N)C(=O)C2=C(C1=O)N1CC3NC3C1(OC)C2COC(N)=O` (stereo not drawn) [Compound 12, 6-Demethyl-6-(2-methoxycarbonylethylthio)methylmitomycin C], for which the MIC in data set [1] is 0.63 µg/mL (≈ 1.39 µM); in data set [2] it was 0.31 µg/mL (≈ 0.685 µM); in data set [3] it was 1.3 µg/mL (≈ 2.87 µM); in data set [4] it was 0.31 µg/mL (≈ 0.685 µM).

In the case of `COCC1=C(OC)C(=O)C2=C(C1=O)N1CC3NC3C1(OC)C2COC(N)=O` (stereo not drawn) [Compound 4, 6-Demethyl-6-methoxymethylmitomycin A], the MIC amounted to 10 µg/mL (≈ 26.4 µM) in data set [1], 10 µg/mL (≈ 26.4 µM) in data set [2], 2.5 µg/mL (≈ 6.59 µM) in data set [3] and 0.63 µg/mL (≈ 1.66 µM) in data set [4].

Take `COC12C(COC(N)=O)C3=C(C(=O)C(CSC(C)C)=C(N)C3=O)N1CC1NC12` (stereo not drawn) [Compound 16, 6-Demethyl-6-isopropylthiomethylmitomycin C]: the MIC in data set [1] is 0.078 µg/mL (≈ 0.191 µM); in data set [2], 0.16 µg/mL (≈ 0.392 µM); in data set [3], 10 µg/mL (≈ 24.5 µM); in data set [4] it was 1.3 µg/mL (≈ 3.18 µM). In data set [5] (intravenous), this compound came in with a 50% lethal dose (LD50) at 336 h of 37.5 mg/kg. For the same compound, in the data set with Sarcoma 180 solid tumor (setting [7]), the ED50 came out at 8.4 mg/kg.
